# Results published in patent US20220298483A1, “METHOD AND COMPOSITION FOR CHONDROGENESIS” (National Health Research Institutes, priority 2021, published 2022).
# B1: TGFβ3: pleomorphic growth factor commonly used to induce MSC chondrogenesis (R&D Systems) (protein, UniProt P10600 301-412, looked up)
# Transforming growth factor …: ALDTNYCFRNLEENCCVRPLYIDFRQDLGWKWVHEPKGYYANFCSGPCPYLRSADTTHSTVLGLYNTLNPEASASPCCVPQDLEPLTILYYVGRTPKVEQLSNMVVKSCKCS
# Columns and labels:
# [1] = system: β-catenin in iPSC-MSC pellets; assay: Immunofluorescent staining and quantification of nuclear β-catenin; type: cell-based, human; conditions: ChBM plus modulator, 1 day, compared to ChBM or TGFβ3 (FIG. 4A, 4B)
# Description: (§1) In vitro chondrogenic differentiation using 3D pellet culture was performed as described previously (Liu et al., 2011; Wang et al., 2018; Yen et al., 2013), 2×10^5 trypsinized were centrifuged 450×g for 10 minutes to form a pellet in expansion medium. After 16 hours, the medium was changed to chondrogenic basal medium (ChBM) consisting of low-glucose DMEM supplemented with 100 units/ml penicillin, 100 μg/ml streptomycin (all from Gibco-Thermo Fisher Scientific), 1% Insulin-transferrin-sodium selenite media supplement (Sigma-Aldrich, St Louis, Mo., USA), 2 mM L-glutamine (Gibco-Thermo Fisher Scientific), 10 μM L-Ascorbic acid 2-phosphate (Sigma-Aldrich), 100 nm dexamethasone (Sigma-Aldrich). Addition of TGFβ1 (10 ng/mL; R&D Systems, Minneapolis, Minn., USA), TGFβ3 (10 ng/mL; R&D Systems), XAV939 (XAV; 10 μM; Sigma-Aldrich) or CHIR99021 (CHIR; 10 μM; Sigma-Aldrich) to ChBM was performed as indicated. Cell pellets were harvested at the indicated day for analysis. […]
# (§2) Immunofluorescent staining was performed as previously reported (Wang et al., 2013). […] Fluorescent signals were acquired by confocal microscopy (Leica TCS SP5 II, Wetzlar, Germany) and analyzed by Image J (NIH, Maryland, USA).
# [2] = system: N-cadherin/β-catenin interactions in micromass cultured iPSC-MSCs; assay: Proximity ligation assay (PLA) for N-cadherin-β-catenin interaction; type: cell-based, human; conditions: ChBM plus modulator, 1 day (FIG. 5C, 5D)
# Description: Micromass cultured iPSC-MSCs were used for PLA and performed according to the manufacturer's protocol (Sigma-Aldrich). Antibodies against N-cadherin (Abcam) and β-catenin (BD Biosciences) were used for recognition. After ligation and amplification, the PLA signals from each pair of probes in close proximity (<40 nm) were visualized by confocal microscope (Leica TCS SP5 II) and signal counts were analyzed by Image J.
# iPSC-MSC pellets = assay: Quantitative real-time PCR of chondrogenic, osteogenic and Wnt downstream genes; type: cell-based, human; conditions: for AXIN2 gene expression: 3 days (FIG. 4C); for COL2A1 gene expression / ACAN gene expression: no TGFβ unless added; for COL2A1 gene expression: Day 3 (FIG. 3C); for ACAN gene expression: Day 3 (FIG. 3D); for collagen 2A1 (COL2A1) gene expression: Day 3 (FIG. 1D); for aggrecan (ACAN) gene expression: Day 3 (FIG. 1E); for RUNX2 mRNA expression compared to ChBM: 10 ng/mL in ChBM, Day 3 (FIG. 2E)
# Description: (§3) In vitro chondrogenic differentiation using 3D pellet culture was performed as described previously (Liu et al., 2011; Wang et al., 2018; Yen et al., 2013), 2×10^5 trypsinized were centrifuged 450×g for 10 minutes to form a pellet in expansion medium. After 16 hours, the medium was changed to chondrogenic basal medium (ChBM) consisting of low-glucose DMEM supplemented with 100 units/ml penicillin, 100 μg/ml streptomycin (all from Gibco-Thermo Fisher Scientific), 1% Insulin-transferrin-sodium selenite media supplement (Sigma-Aldrich, St Louis, Mo., USA), 2 mM L-glutamine (Gibco-Thermo Fisher Scientific), 10 μM L-Ascorbic acid 2-phosphate (Sigma-Aldrich), 100 nm dexamethasone (Sigma-Aldrich). Addition of TGFβ1 (10 ng/mL; R&D Systems, Minneapolis, Minn., USA), TGFβ3 (10 ng/mL; R&D Systems), XAV939 (XAV; 10 μM; Sigma-Aldrich) or CHIR99021 (CHIR; 10 μM; Sigma-Aldrich) to ChBM was performed as indicated. Cell pellets were harvested at the indicated day for analysis. Micromass culture-based chondrogenic differentiation was performed as previously reported, using 2×10^7 cells/ml of MSCs suspended in expansion medium and 20-μl drops spotted in the center of each well of a 24-well culture plate (Craft et al., 2015; Greco et al., 2011). After adhesion for 1.5 hour in a humidified incubator at 37° C. with 5% CO2, the medium was changed to ChBM with indicated regulators for chondrogenic induction.
# Total RNA was isolated using TRI® reagent (Sigma-Aldrich), and quantified using NanoDrop spectrophotometer (Nyxor Biotech, Paris, France) (Wang et al., 2013). Reverse transcription was performed using RevertAid H Minus reverse transcriptase (Thermo Fisher Scientific), and PCR was performed on ABI PRISM 7500 system (Applied Biosystem, Foster City, Calif., USA) with SYBR Fast qPCR kit (KAPA Biosystems, Boston, Mass., USA). mRNA expression level was calculated by using the ΔΔCt method, and glyceraldehyde 3-phosphate dehydrogenase (GAPDH) level were used as housekeeping control. The results are normalized to ChBM to represent effects of indicated modulators.
# [3] = system: β-catenin in micromass-cultured iPSC-MSCs; assay: Immunofluorescence quantification of β-catenin expression; type: cell-based, human; conditions: 1 day (FIG. 8)
# Description: Confocal immunofluorescence microscopy and fluorescence quantification of β-catenin in micromass-cultured iPSC-MSCs with the indicated modulators in chondrogenic induction medium for 1 day. Nuclei are labeled by DAPI. Scale bar, 5 μm. ChBM, chondrogenic basal medium without TGFβ. XAV, Wnt/β-catenin antagonist XAV939. CHIR, Wnt/β-catenin agonist CHIR99021. Data are represented as mean±S.D. *, p<0.05, **, p<0.01, ***, p<0.001.
# Immunofluorescent staining was performed as previously reported (Wang et al., 2013). Paraformaldehyde-fixed cell samples were permeabilized with 0.1% Triton X-100 and nonspecific binding was blocked by 5% bovine serum albumin Primary antibodies against alpha smooth muscle actin (αSMA) (Sigma-Aldrich), β-catenin (BD Biosciences, San Jose, Calif., USA) or N-cadherin (Abcam, Cambridge, UK) were stained with 1:100 dilution for 24 hours, followed by species specific secondary antibody incubation overnight. Fluorescent signals were acquired by confocal microscopy (Leica TCS SP5 II, Wetzlar, Germany) and analyzed by Image J (NIH, Maryland, USA).
# [4] = system: micromass-cultured iPSC-MSCs; assay: Micromass culture chondrogenic differentiation, Alcian Blue staining and quantification; type: cell-based, human; conditions: ChBM plus modulator; for micromass structural condensation and Alcian Blue intensity: Day 10, compared to ChBM and TGFβ3 (FIG. 3B)
# Description: as §3
# (§4) Samples were washed with PBS and fixed with 4% paraformaldehyde, followed by pH 1.0 1% Alcian blue 8GX (Sigma-Aldrich) staining at room temperature overnight to detect sulfated proteoglycan matrix (Lev and Spicer, 1964). Quantification of Alcian blue staining extracted with 6M Guanidine-HCl was measured in 650 nm absorbance (Song et al., 2018).
# [5] = system: human MSCs—including iPSC-MSCs, ESC-MSCs and BM-MSCs; assay: 3D pellet culture chondrogenesis in complete chondrogenic medium, Alcian Blue staining and GAG quantification; type: cell-based; conditions: ChM containing TGFβ3, 10 μM; for pellet condensation / pellet integrity: Day 20, all 3 sources of MSCs
# Description: as §3
# Samples were washed with PBS and fixed with 4% paraformaldehyde, followed by pH 1.0 1% Alcian blue 8GX (Sigma-Aldrich) staining at room temperature overnight to detect sulfated proteoglycan matrix (Lev and Spicer, 1964). Quantification of Alcian blue staining extracted with 6M Guanidine-HCl was measured in 650 nm absorbance (Song et al., 2018). […]
# [6] = system: pellet-cultured iPSC-MSCs; assay: 3D pellet culture chondrogenic differentiation of iPSC-MSCs, Alcian Blue staining and quantification; type: cell-based, human; conditions: for pellet condensation and Alcian Blue staining compared to ChBM: ChBM plus modulator (10 ng/mL TGFβ3, 10 μM CHIR or XAV), 20 days (FIG. 3A top); for quantification of GAG production: Day 10, compared to ChBM and to TGFβ3 (FIG. 3A right)
# Description: as §3, §4
# [7] = system: N-cadherin in iPSC-MSCs cultured as micromass; assay: Immunofluorescent staining of N-cadherin; type: cell-based, human; conditions: ChBM plus modulator, 24 hours, compared to all other conditions (FIG. 5A, 5B)
# Description: as §1, §2
# [8] = system: Mouse BM-MSCs transplanted subcutaneously into wild-type C57BL/6J mice; assay: In vivo ectopic chondrogenesis, Alcian Blue staining of transplanted MSC pellets; conditions: local injection every 3 days, harvest Day 20 (FIG. 3F)
# Description: Samples were washed with PBS and fixed with 4% paraformaldehyde, followed by pH 1.0 1% Alcian blue 8GX (Sigma-Aldrich) staining at room temperature overnight to detect sulfated proteoglycan matrix (Lev and Spicer, 1964). Quantification of Alcian blue staining extracted with 6M Guanidine-HCl was measured in 650 nm absorbance (Song et al., 2018). All animal work was performed according to protocols approved by the Institutional Animal Care and Use Committee. In vivo ectopic chondrogenesis was performed as previously reported with modifications (Zhao et al., 2014). Mouse BM-MSCs were cultured as 3D pellets in ChBM alone or with addition of TGFβ3, CHIR, or XAV for 3 days, then subcutaneously transplanted to dorsal skin of wild-type C57BL/6J mice, with local injections of modulators every 3 days till the pellet sample was harvested at Day 20. Collected samples were then frozen in optimal cutting temperature (OCT) compound and sliced to […] in thickness for histological staining.
# [9] = ChBM plus modulator, 3 days (FIG. 4D)
Molecule,nuclear β-catenin levels [1],"N-cadherin/β-catenin interactions, PLA signals [2]",AXIN2 gene expression (iPSC-MSC pellets; ChBM plus modulator),RUNX2 gene expression (iPSC-MSC pellets; [9]),COL2A1 gene expression (iPSC-MSC pellets; ChBM plus modulator),ACAN gene expression (iPSC-MSC pellets; ChBM plus modulator),collagen 2A1 (COL2A1) gene expression (iPSC-MSC pellets; in ChM),aggrecan (ACAN) gene expression (iPSC-MSC pellets; in ChM),"RUNX2 gene expression (iPSC-MSC pellets; in ChM, Day 3 (FIG. 1F))",micromass structural condensation and Alcian Blue intensity [4],pellet condensation / pellet integrity [5],pellet condensation and Alcian Blue staining compared to ChBM [6],quantification of GAG production ([6]; ChBM plus modulator),RUNX2 mRNA expression compared to ChBM (iPSC-MSC pellets),further results
"Cc1c[nH]c(-c2cnc(NCCNc3ccc(C#N)cn3)nc2-c2ccc(Cl)cc2Cl)n1 [CHIR, CHIR99021]",dramatically increased,minimal PLA signal detected,strongly increased,strongly increased,minimal expression,minimal expression,significant downregulation,significant downregulation,the opposite effect,minimal evidence of any micromass structure or Alcian Blue staining,decreased pellet integrity,did not undergo condensation but became disintegrated,minimal GAG production,,"SOX9 gene expression (iPSC-MSC pellets; in ChM, Day 3 (FIG. 1C)): significant downregulation; β-catenin expression [3]: strongest expression of β-catenin"
"C=C1[C@@H](C)[C@H]2[C@H](Cc3ccccc3)NC(=O)[C@]23[C@H](OC(C)=O)/C=C/[C@@](C)(O)C(=O)[C@@H](C)C/C=C/[C@H]3[C@@H]1O [CytoD, cytochalasin D]",,,,,,,,,,,,,,,"pellet condensation / structure and chondrogenic differentiation ([6]; 0.25 μM CytoD, 10 μM XAV, Day 10 (FIG. 5F, 5G)): significantly disrupted the condensation process with the pellets completely disintegrated by Day 10"
"Oc1nc(-c2ccc(C(F)(F)F)cc2)nc2c1CSCC2 [XAV, XAV939]",lowest nuclear β-catenin levels,significantly increase,significantly decreased,significantly decreased,most significantly upregulated,most significantly upregulated,significant upregulation,significant upregulation,decreased expression,better structural condensation and stronger Alcian Blue intensity,increased condensation of the pellets,formed well-condensed spheres and strong Alcian Blue staining,significant increases,,"N-cadherin expression [7]: strongly and most significantly upregulated; GAG production in in vivo differentiated samples ([8]; 10 μM): highest level of GAG production; GAG production in vivo compared to TGFβ3 agonism [8]: significantly increased; quantitation of GAG production in micromass culture ([4]; Day 10 (FIG. 3B)): highest production of GAG; quantification of glycosaminoglycans (GAGs), Alcian Blue ([5]; 20 days, compared to ChM (FIG. 1A)): significant increase; GAG production by Alcian Blue staining, XAV versus TGFβ3 ([6]; ChBM plus modulator, Day 10 (FIG. 3A bottom)): more rapidly induced"
TGFβ1: pleomorphic growth factor commonly used to induce MSC chondrogenesis (R&D Systems),,,,,,,,,,,,,,significantly upregulated,
B1,,,increased expression,increased expression,did not increase expression,did not increase expression,,,,,,formed well-condensed spheres and strong Alcian Blue staining,,significantly upregulated,
